# Results published in publication PMC10035389, “Safety, Tolerability, and Pharmacokinetics of TAK-931, a Cell Division Cycle 7 Inhibitor, in Patients with Advanced Solid Tumors: A Phase I First-in-Human Study” (Cancer Research Communications, 2022).
# System: patients with advanced solid tumors
# Test: Safety and tolerability (adverse events, NCI CTCAE v4.03), phase I dose-escalation study
# Type: in vivo, human
# From the text: This was a phase I, open-label, dose-escalation study of single-agent TAK-931. Dose escalation of TAK-931 was cohort based with an adaptive design using Bayesian logistic regression modeling (BLRM) with pharmacokinetic guidance. BLRM also guided MTD estimation from the second dose. Patients were enrolled in one of four dosing schedules (A, B, D, or E; Supplementary Fig. S1) to receive TAK-931. Two additional schedules were planned (C and F) but no patients were enrolled. Schedule A included an initial accelerated escalation phase. TAK-931 was administered once daily for 14 days in 21-day cycles starting at 30 mg, which doubled until a cycle 1 dose-limiting toxicity (DLT) was observed, when 2 patients experienced grade ≥2 treatment-related toxicity, or when maximum geometric mean plasma concentration (Cmax) for the cohort reached or exceeded 800 ng/mL [threshold for off-target adverse effects (hypotension) in animal toxicology studies]; then dose escalation transitioned to modified Fibonacci escalation steps. In schedule B (based on experience with schedule A), patients received TAK-931 once daily or twice daily for 7 days on, 7 days off in a 28-day cycle starting at 60 mg. In schedule D, patients received TAK-931 once daily starting at 20 mg in 21-day cycles; BLRM was not applied but further adjustments were dependent on observed safety, pharmacokinetics, and pharmacodynamics. In schedule E, patients received TAK-931 once daily for 2 days on, 5 days off starting at 100 mg in 21-day cycles. A safety expansion was permitted once MTD had been determined. Prophylactic growth factors were permitted in all schedules to manage severe and/or febrile neutropenia. TAK-931 treatment continued until unacceptable toxicity, disease progression, or patient withdrawal.
# DLTs included: cycle 1 grade ≥3 hematologic and non-hematologic events or grade 2 non-hematologic events considered by the investigator to be TAK-931-related, grade 2 ejection fraction decrease, >2 weeks delay in initiating cycle 2 (1 week for schedules D and E), and >50% TAK-931 dose reduction in cycle 1 due to treatment-related adverse events (AEs; see Supplementary Materials and Methods for full DLT criteria). Toxicity was evaluated by NCI Common Terminology Criteria for Adverse Events (version 4.03). Tumor response was measured using the RECIST (version 1.1) ([16]). Serial blood samples for pharmacokinetic analysis were collected during cycle 1 on days 1 and 7 (schedule B), 1 and 8 (schedules A and D), or 1 and 9 (schedule E). Pharmacokinetic parameters were estimated from concentration–time profiles using noncompartmental methods with WinNonlin® Phoenix™ version 8.1 (Certara, Princeton, NJ). pMCM2 was detected semiquantitatively by IHC of histologic sections of formalin-fixed, paraffin-embedded skin and tumor biopsies using anti-pMCM2 (3378-1, Epitomics Inc.; ref. [15]). Quantitative image analysis determined pMCM2 levels as “histologic score nuclei (H-score).” Skin punch biopsies (2–4 mm) were obtained during screening or predose on cycle 1, day 1 and for patients in schedules A, B, and D, postdose on any drug dosing day after 3 consecutive dosing days in cycle 1. A postdose skin biopsy was obtained on day 9 in schedule E. Fresh tumor biopsy pairs were collected predose and postdose on any dosing day after the completion of 3 consecutive dosing days in cycle 1 from patients who received doses considered to have biological effect.
# The safety population included patients who received ≥1 dose of TAK-931. The pharmacodynamic-evaluable population comprised patients from the safety population with a baseline and ≥1 additional postbaseline biopsy sample that was suitable for pMCM2 analysis. The pharmacokinetic-evaluable population included patients with sufficient dosing and TAK-931 concentration–time data to estimate pharmacokinetic parameters. […]
# [1] = Schedule A (once daily 14 days, 21-day cycles) n = 25
# [2] = Schedule B (7 days on, 7 days off, 28-day cycles) n = 24
# [3] = Schedule D (continuous once daily) n = 18
smiles,measurement,setting,value
"Cc1[nH]ncc1-c1cc2nc([C@@H]3CC4CCN3CC4)[nH]c(=O)c2s1 [TAK-931, simurosertib]","Abdominal pain, AE any grade",[1],2 (8) n (%)
same,"Alopecia, AE any grade",[1],6 (24) n (%)
same,"Anemia, AE any grade",[1],6 (24) n (%)
same,"Anemia, grade ≥3 AE",[1],1 (4) n %
same,"Arthralgia, AE any grade",[1],3 (12) n (%)
same,"Blood creatinine increased, AE any grade",[1],3 (12) n (%)
same,"Constipation, AE any grade",[1],2 (8) n (%)
same,"Cough, AE any grade",[1],3 (12) n (%)
same,"Decreased appetite, AE any grade",[1],7 (28) n (%)
same,"Decreased appetite, grade ≥3 AE",[1],2 (8) n %
same,"Diarrhea, AE any grade",[1],7 (28) n (%)
same,"Dry skin, AE any grade",[1],1 (4) n (%)
same,"Edema peripheral, AE any grade",[1],4 (16) n (%)
same,"Electrocardiogram QT prolonged, AE any grade",[1],3 (12) n (%)
same,"Fall, AE any grade",[1],0 (0) n (%)
same,"Fatigue, AE any grade",[1],2 (8) n (%)
same,"Febrile neutropenia, AE any grade",[1],1 (4) n (%)
same,"Febrile neutropenia, grade ≥3 AE",[1],1 (4) n %
same,"Gamma-glutamyltransferase increased, AE any grade",[1],0 (0) n (%)
same,"Gamma-glutamyltransferase increased, grade ≥3 AE",[1],0 (0) n %
same,"Hypoalbuminemia, AE any grade",[1],4 (16) n (%)
same,"Hypoalbuminemia, grade ≥3 AE",[1],0 (0) n %
same,"Hypophosphatemia, grade ≥3 AE",[1],1 (4) n %
same,"Hypotension, AE any grade",[1],2 (8) n (%)
same,"Leukopenia, AE any grade",[1],5 (20) n (%)
same,"Leukopenia, grade ≥3 AE",[1],5 (20) n %
same,"Lymphocyte count decreased, AE any grade",[1],3 (12) n (%)
same,"Lymphocyte count decreased, grade ≥3 AE",[1],1 (4) n %
same,"Lymphopenia, AE any grade",[1],2 (8) n (%)
same,"Malaise, AE any grade",[1],5 (20) n (%)
same,"Nasopharyngitis, AE any grade",[1],2 (8) n (%)
same,"Nausea, AE any grade",[1],15 (60) n (%)
same,"Neutropenia, AE any grade",[1],12 (48) n (%)
same,"Neutropenia, grade ≥3 AE",[1],11 (44) n %
same,"Orthostatic hypotension, AE any grade",[1],0 (0) n (%)
same,"Platelet count decreased, AE any grade",[1],2 (8) n (%)
same,"Pruritus, AE any grade",[1],0 (0) n (%)
same,"Pyrexia, AE any grade",[1],5 (20) n (%)
same,"Rash popular, AE any grade",[1],0 (0) n (%)
same,"Stomatitis, AE any grade",[1],0 (0) n (%)
same,"Thrombocytopenia, AE any grade",[1],1 (4) n (%)
same,"Tumor pain, AE any grade",[1],3 (12) n (%)
same,"Vomiting, AE any grade",[1],7 (28) n (%)
same,"White blood cell count decreased, AE any grade",[1],8 (32) n (%)
same,"White blood cell count decreased, grade ≥3 AE",[1],3 (12) n %
same,"Abdominal pain, AE any grade",[2],3 (13) n (%)
same,"Alopecia, AE any grade",[2],13 (54) n (%)
same,"Anemia, AE any grade",[2],4 (17) n (%)
same,"Anemia, grade ≥3 AE",[2],3 (13) n %
same,"Arthralgia, AE any grade",[2],1 (4) n (%)
same,"Blood creatinine increased, AE any grade",[2],3 (13) n (%)
same,"Constipation, AE any grade",[2],5 (21) n (%)
same,"Cough, AE any grade",[2],0 (0) n (%)
same,"Decreased appetite, AE any grade",[2],5 (21) n (%)
same,"Decreased appetite, grade ≥3 AE",[2],0 (0) n %
same,"Diarrhea, AE any grade",[2],4 (17) n (%)
same,"Dry skin, AE any grade",[2],1 (4) n (%)
same,"Edema peripheral, AE any grade",[2],1 (4) n (%)
same,"Electrocardiogram QT prolonged, AE any grade",[2],0 (0) n (%)
same,"Fall, AE any grade",[2],1 (4) n (%)
same,"Fatigue, AE any grade",[2],5 (21) n (%)
same,"Febrile neutropenia, AE any grade",[2],3 (13) n (%)
same,"Febrile neutropenia, grade ≥3 AE",[2],3 (13) n %
same,"Gamma-glutamyltransferase increased, AE any grade",[2],3 (13) n (%)
same,"Gamma-glutamyltransferase increased, grade ≥3 AE",[2],2 (8) n %
same,"Hypoalbuminemia, AE any grade",[2],2 (8) n (%)
same,"Hypoalbuminemia, grade ≥3 AE",[2],2 (8) n %
same,"Hypophosphatemia, grade ≥3 AE",[2],1 (4) n %
same,"Hypotension, AE any grade",[2],4 (17) n (%)
same,"Leukopenia, AE any grade",[2],13 (54) n (%)
same,"Leukopenia, grade ≥3 AE",[2],6 (25) n %
same,"Lymphocyte count decreased, AE any grade",[2],0 (0) n (%)
same,"Lymphocyte count decreased, grade ≥3 AE",[2],0 (0) n %
same,"Lymphopenia, AE any grade",[2],3 (13) n (%)
same,"Malaise, AE any grade",[2],1 (4) n (%)
same,"Nasopharyngitis, AE any grade",[2],3 (13) n (%)
same,"Nausea, AE any grade",[2],21 (88) n (%)
same,"Neutropenia, AE any grade",[2],19 (79) n (%)
same,"Neutropenia, grade ≥3 AE",[2],15 (63) n %
same,"Orthostatic hypotension, AE any grade",[2],1 (4) n (%)
same,"Platelet count decreased, AE any grade",[2],1 (4) n (%)
same,"Pruritus, AE any grade",[2],3 (13) n (%)
same,"Pyrexia, AE any grade",[2],1 (4) n (%)
same,"Rash popular, AE any grade",[2],3 (13) n (%)
same,"Stomatitis, AE any grade",[2],6 (25) n (%)
same,"Thrombocytopenia, AE any grade",[2],4 (17) n (%)
same,"Tumor pain, AE any grade",[2],1 (4) n (%)
same,"Vomiting, AE any grade",[2],13 (54) n (%)
same,"White blood cell count decreased, AE any grade",[2],5 (21) n (%)
same,"White blood cell count decreased, grade ≥3 AE",[2],3 (13) n %
same,"Abdominal pain, AE any grade",[3],0 (0) n (%)
same,"Alopecia, AE any grade",[3],3 (17) n (%)
same,"Anemia, AE any grade",[3],3 (17) n (%)
same,"Anemia, grade ≥3 AE",[3],1 (6) n %
same,"Arthralgia, AE any grade",[3],1 (6) n (%)
same,"Blood creatinine increased, AE any grade",[3],1 (6) n (%)
same,"Constipation, AE any grade",[3],2 (11) n (%)
same,"Cough, AE any grade",[3],0 (0) n (%)
same,"Decreased appetite, AE any grade",[3],6 (33) n (%)
same,"Decreased appetite, grade ≥3 AE",[3],1 (6) n %
same,"Diarrhea, AE any grade",[3],1 (6) n (%)
same,"Dry skin, AE any grade",[3],1 (6) n (%)
same,"Edema peripheral, AE any grade",[3],2 (11) n (%)
same,"Electrocardiogram QT prolonged, AE any grade",[3],0 (0) n (%)
same,"Fall, AE any grade",[3],1 (6) n (%)
same,"Fatigue, AE any grade",[3],3 (17) n (%)
same,"Febrile neutropenia, AE any grade",[3],0 (0) n (%)
same,"Febrile neutropenia, grade ≥3 AE",[3],0 (0) n %
same,"Gamma-glutamyltransferase increased, AE any grade",[3],0 (0) n (%)
same,"Gamma-glutamyltransferase increased, grade ≥3 AE",[3],0 (0) n %
same,"Hypoalbuminemia, AE any grade",[3],0 (0) n (%)
same,"Hypoalbuminemia, grade ≥3 AE",[3],0 (0) n %
same,"Hypophosphatemia, grade ≥3 AE",[3],0 (0) n %
same,"Hypotension, AE any grade",[3],0 (0) n (%)
same,"Leukopenia, AE any grade",[3],0 (0) n (%)
same,"Leukopenia, grade ≥3 AE",[3],0 (0) n %
same,"Lymphocyte count decreased, AE any grade",[3],0 (0) n (%)
same,"Lymphocyte count decreased, grade ≥3 AE",[3],0 (0) n %
same,"Lymphopenia, AE any grade",[3],0 (0) n (%)
same,"Malaise, AE any grade",[3],3 (17) n (%)
same,"Nasopharyngitis, AE any grade",[3],1 (6) n (%)
same,"Nausea, AE any grade",[3],5 (28) n (%)
same,"Neutropenia, AE any grade",[3],6 (33) n (%)
same,"Neutropenia, grade ≥3 AE",[3],3 (17) n %
same,"Orthostatic hypotension, AE any grade",[3],0 (0) n (%)
same,"Platelet count decreased, AE any grade",[3],2 (11) n (%)
same,"Pruritus, AE any grade",[3],1 (6) n (%)
same,"Pyrexia, AE any grade",[3],2 (11) n (%)
